From patent US9115133B2, “Substituted fused tricyclic compounds, compositions and medicinal applications thereof” (Advinus Therapeutics Limited, priority 2011, dated 2015)

Columns and labels:
Format in all cases: biochemical
Details in all cases: 200 μg/ml Poly Glu-Tyr (4:1), ATP 1 uM, 90 min room temperature, luminescence
[1] = molecular target: T1, Recombinant JAK2 (Amino acids 808-1132) (Homo sapiens, UniProt O60674); experiment: Kinase-Glo Luminescent Kinase Assay, recombinant JAK2
T1 construct: JAK2 (Amino acids 808-1132; NM_004972.3); made in house; host or cells: baculovirus expression system (Bac-to-Bac)
T1 sequence (O60674 808-1132): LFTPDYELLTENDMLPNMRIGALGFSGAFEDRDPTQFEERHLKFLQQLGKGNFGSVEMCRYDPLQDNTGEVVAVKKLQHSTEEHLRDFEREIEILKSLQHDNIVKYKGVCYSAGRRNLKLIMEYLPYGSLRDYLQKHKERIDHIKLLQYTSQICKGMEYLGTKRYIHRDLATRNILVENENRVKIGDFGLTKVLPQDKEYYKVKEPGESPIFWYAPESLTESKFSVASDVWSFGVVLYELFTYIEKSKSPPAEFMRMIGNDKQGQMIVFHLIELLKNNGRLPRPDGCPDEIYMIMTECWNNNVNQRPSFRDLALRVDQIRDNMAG
Text: (§1) Recombinant JAK1 (Amino acids 850-1154; NM_002227.2), JAK2 (Amino acids 808-1132; NM_004972.3) and JAK3 (Amino acids 781-1124; NM_000215.3) used in the studies were expressed using Invitrogen's Bac-to-Bac baculovirus expression system according to manufacturer's instructions. Adenosine 5′-triphosphate was obtained from Sigma Aldrich chemicals (Cat # A7699). Poly Glu-Tyr (4:1) sodium salt was obtained from Sigma Aldrich (Cat # P0275), Kinase Glo® Luminescent Kinase assay kit was obtained from Promega (Cat # V6713) Kinase activity was assessed by Promega Kinase-Glo® Luminescent Kinase Assay kit using 200 μg/ml Poly Glu-Tyr (4:1) as substrate and ATP at 1 uM concentration. The reactions were carried out in 384 well plates in total reaction volume of 20 uL. Reaction mixtures contained 50 mM HEPES pH 7.4, 5 mM MgCl2, 1 mM DTT, 0.01% BSA, 0.01% Tween 20. Kinase was pre-incubated with compounds or 1% DMSO for 5 min before addition of substrate and ATP to check for inhibition. Kinase reactions were carried out at room temperature for 90 min. The reactions were stopped by adding 5 μl of Kinase Glo® reagent & 10 μl of reaction mixture followed by measuring luminescence. The luminescent signal is correlated with the amount of ATP present at the end of kinase reaction and is inversely correlated with the amount of kinase activity. For each data point, % inhibition is calculated based on uninhibited reaction (without compound) which is considered as 100% activity over no enzyme or substrate controls. Dose response data is then fit using a four parameter logistic equation using Graph-pad Prism 5 software to determine inhibition constant 50 (IC50).

[2] = molecular target: T2, Recombinant JAK3 (Amino acids 781-1124) (Homo sapiens, UniProt P52333); experiment: Kinase-Glo Luminescent Kinase Assay, recombinant JAK3
T2 construct: JAK3 (Amino acids 781-1124; NM_000215.3); made in house; host or cells: baculovirus expression system (Bac-to-Bac)
T2 sequence (P52333 781-1124): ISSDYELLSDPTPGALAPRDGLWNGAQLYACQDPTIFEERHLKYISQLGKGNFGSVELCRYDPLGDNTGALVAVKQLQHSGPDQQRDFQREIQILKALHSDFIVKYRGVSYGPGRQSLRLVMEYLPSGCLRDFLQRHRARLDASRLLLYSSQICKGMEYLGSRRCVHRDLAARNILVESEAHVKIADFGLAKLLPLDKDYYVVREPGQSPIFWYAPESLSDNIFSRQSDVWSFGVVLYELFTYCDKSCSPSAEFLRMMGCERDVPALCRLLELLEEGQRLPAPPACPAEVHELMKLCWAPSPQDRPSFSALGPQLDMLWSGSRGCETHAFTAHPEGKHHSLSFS
Text: as §1

[3] = molecular target: T3, Recombinant JAK1 (Amino acids 850-1154) (Homo sapiens, UniProt P23458); experiment: Kinase-Glo Luminescent Kinase Assay, recombinant JAK1
T3 construct: Recombinant JAK1 (Amino acids 850-1154; NM_002227.2); made in house; host or cells: baculovirus expression system (Bac-to-Bac)
T3 sequence (P23458 850-1154): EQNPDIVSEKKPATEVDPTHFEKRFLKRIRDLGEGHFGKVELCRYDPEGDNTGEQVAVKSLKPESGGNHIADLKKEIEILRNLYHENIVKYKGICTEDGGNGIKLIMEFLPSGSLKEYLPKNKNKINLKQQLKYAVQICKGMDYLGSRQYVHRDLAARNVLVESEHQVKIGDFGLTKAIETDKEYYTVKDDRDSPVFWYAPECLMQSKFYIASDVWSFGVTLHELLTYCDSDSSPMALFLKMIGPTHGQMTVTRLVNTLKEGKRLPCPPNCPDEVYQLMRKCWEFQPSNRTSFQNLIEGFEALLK
Text: as §1

SMILES	IC50 [1] [nM]	IC50 [2] [nM]	IC50 [3] [nM]
CC(C)(C)OC(=O)NC1CCN(c2ccnc3cnc4[nH]ccc4c23)C1 (stereo not shown) [Comp. 124, tert-Butyl N-[1-(3H-pyrrolo[3,2-f][1,7]naphthyridin-9-yl)pyrrolidin-3-yl]carbamate]	> 20	> 20	–
O=S(=O)(C1CC1)N1CCCC(c2ccnc3cnc4[nH]ccc4c23)C1 (stereo not shown) [Ex. 6, 9-(1-cyclopropylsulfonyl-3-piperidyl)-3H-pyrrolo[3,2-f][1,7]naphthyridine]	–	1 to 20	1 to 20
N#CCS(=O)(=O)N1CCCC(c2ccnc3cnc4[nH]ccc4c23)C1 (stereo not shown) [Ex. 7, 2-[[3-(3H-pyrrolo[3,2-f][1,7]naphthyridin-9-yl)-1-piperidyl]sulfonyl]acetonitrile]	–	1 to 20	1 to 20
CC(C)CS(=O)(=O)N1CCCC(c2ccnc3cnc4[nH]ccc4c23)C1 (stereo not shown) [Ex. 8, 9-(1-isobutylsulfonyl-3-piperidyl)-3H-pyrrolo[3,2-f][1,7]naphthyridine]	–	1 to 20	1 to 20
CS(=O)(=O)N1CCC[C@H](c2ccnc3cnc4[nH]ccc4c23)C1 [Ex. 10A, (R)9-(1-methylsulfonyl-3-piperidyl)-3H-pyrrolo[3,2-f][1,7]naphthyridine]	> 20	> 20	–
O=C(CC(F)(F)F)N1CC[C@@H](c2ccnc3cnc4[nH]ccc4c23)C1 [Ex. 15B, (S)3,3,3-trifluoro-1-[3-(3H-pyrrolo[3,2-f][1,7]naphthyridin-9-yl)pyrrolidin-1-yl]propan-1-one]	1 to 20	> 20	–
N#CCS(=O)(=O)N1CC[C@H](c2ccnc3cnc4[nH]ccc4c23)C1 [Ex. 16A, (R)2-[3-(3H-pyrrolo[3,2-f][1,7]naphthyridin-9-yl)pyrrolidin-1-yl]sulfonylacetonitrile]	1 to 20	> 20	–
N#CCS(=O)(=O)N1CC[C@@H](c2ccnc3cnc4[nH]ccc4c23)C1 [Ex. 16B, (S)2-[3-(3H-pyrrolo[3,2-f][1,7]naphthyridin-9-yl)pyrrolidin-1-yl]sulfonylacetonitrile]	> 20	> 20	–
N#CCC(=O)N1CCC[C@H](c2ncnc3cnc4[nH]ccc4c23)C1 [Ex. 23B, (S)3-Oxo-3-[3-(3H-3,4,6,8-tetraazacyclopenta[a]naphthalen-9-yl)-piperidin-1-yl]-propionitrile]	1 to 20	1 to 20	–
O=C(CC(F)(F)F)N1CCC[C@H](c2ncnc3cnc4[nH]ccc4c23)C1 [Ex. 24B, (S)3,3,3-Trifluoro-1-[3-(3H-3,4,6,8-tetraazacyclopenta[a]naphthalen-9-yl)-piperidin-1-yl]-propan-1-one]	1 to 20	1 to 20	–
O=C(NC1CC1)N1CCCC(c2ccnc3cnc4[nH]ccc4c23)C1 (stereo not shown) [Ex. 46, N-cyclopropyl-3-(3H-pyrrolo[3,2-f][1,7]naphthyridin-9-yl)piperidine-1-carboxamide]	> 20	> 20	–
O=C(OCC(F)(F)F)N1CCCC(c2ccnc3cnc4[nH]ccc4c23)C1 (stereo not shown) [Ex. 51, 2,2,2-trifluoroethyl 3-(3H-pyrrolo[3,2-f][1,7]naphthyridin-9-yl)piperidine-1-carboxylate]	1 to 20	1 to 20	–
CC(C)OC(=O)N1CCCC(c2ccnc3cnc4[nH]ccc4c23)C1 (stereo not shown) [Ex. 52, Isopropyl 3-(3H-pyrrolo[3,2-f][1,7]naphthyridin-9-yl)piperidine-1-carboxylate]	1 to 20	1 to 20	–
COCCOC1CCCN(c2ccnc3cnc4[nH]ccc4c23)C1 (stereo not shown) [Ex. 57, 9-[3-(2-methoxyethoxy)-1-piperidyl]-3H-pyrrolo[3,2-f][1,7]naphthyridine]	> 20	> 20	–
c1cc(N2CCCCC2)c2c(cnc3[nH]ccc32)n1 [Ex. 58, 9-(1-piperidyl)-3H-pyrrolo[3,2-f][1,7]naphthyridine]	1 to 20	1 to 20	–
c1cc(N2CCC(OCC3CC3)C2)c2c(cnc3[nH]ccc32)n1 (stereo not shown) [Ex. 59, 9-[3-(cyclopropylmethoxy)pyrrolidin-1-yl]-3H-pyrrolo[3,2-f][1,7]naphthyridine]	> 20	1 to 20	–

SMILES	IC50 [1] [nM]	IC50 [2] [nM]	IC50 [3] [nM]
O=C(NC1CC1)C1CCCN(c2ccnc3cnc4[nH]ccc4c23)C1 (stereo not shown) [Ex. 61, N-cyclopropyl-1-(3H-pyrrolo[3,2-f][1,7]naphthyridin-9-yl)piperidine-3-carboxamide]	> 20	> 20	–
O=C(NC1CC1)[C@H]1CCCN(c2ccnc3cnc4[nH]ccc4c23)C1 [Ex. 61A, (3S)-N-cyclopropyl-1-(3H-pyrrolo[3,2-f][1,7]naphthyridin-9-yl)piperidine-3-carboxamide]	> 20	> 20	–
CN(CC1CC1)C1CCN(c2ccnc3cnc4[nH]ccc4c23)C1 (stereo not shown) [Ex. 62, N-(cyclopropylmethyl)-N-methyl-1-(3H-pyrrolo[3,2-f][1,7]naphthyridin-9-yl)pyrrolidin-3-amine]	> 20	> 20	–
CN(C(=O)CC1CC1)C1CCCN(c2ccnc3cnc4[nH]ccc4c23)C1 (stereo not shown) [Ex. 63, 2-cyclopropyl-N-methyl-N-[1-(3H-pyrrolo[3,2-f][1,7]naphthyridin-9-yl)-3-piperidyl]acetamide]	–	> 20	> 20
CC(C)CNC(=O)C1CCCN(c2ccnc3cnc4[nH]ccc4c23)C1 (stereo not shown) [Ex. 67, N-isobutyl-1-(3H-pyrrolo[3,2-f][1,7]naphthyridin-9-yl)piperidine-3-carboxamide]	–	> 20	> 20
CS(=O)(=O)NC1CCCN(c2ccnc3cnc4[nH]ccc4c23)C1 (stereo not shown) [Ex. 73, N-[1-(3H-pyrrolo[3,2-f][1,7]naphthyridin-9-yl)-3-piperidyl] methanesulfonamide]	–	1 to 20	> 20
CC(C)NC(=O)C1CCN(c2ccnc3cnc4[nH]ccc4c23)CC1 [Ex. 75, N-isopropyl-1-(3H-pyrrolo[3,2-f][1,7]naphthyridin-9-yl)piperidine-4-carboxamide]	–	> 20	> 20
O=C(NC1CC1)C1CCN(c2ccnc3cnc4[nH]ccc4c23)CC1 [Ex. 76, N-cyclopropyl-1-(3H-pyrrolo[3,2-f][1,7]naphthyridin-9-yl)piperidine-4-carboxamide]	–	> 20	> 20
COCCNC(=O)C1CCN(c2ccnc3cnc4[nH]ccc4c23)CC1 [Ex. 77, N-(2-methoxyethyl)-1-(3H-pyrrolo[3,2-f][1,7]naphthyridin-9-yl)piperidine-4-carboxamide]	–	> 20	> 20
O=C(NCC(F)(F)F)C1CCN(c2ccnc3cnc4[nH]ccc4c23)CC1 [Ex. 78, 1-(3H-pyrrolo[3,2-f][1,7]naphthyridin-9-yl)-N-(2,2,2-trifluoroethyl)piperidine-4-carboxamide]	–	> 20	> 20
CN(C(=O)C1CCCN(c2ccnc3cnc4[nH]ccc4c23)C1)C1CC1 (stereo not shown) [Ex. 79, N-cyclopropyl-N-methyl-1-(3H-pyrrolo[3,2-f][1,7]naphthyridin-9-yl)piperidine-3-carboxamide]	–	> 20	1 to 20
CN(CC(F)(F)F)C(=O)C1CCCN(c2ccnc3cnc4[nH]ccc4c23)C1 (stereo not shown) [Ex. 80, N-methyl-1-(3H-pyrrolo[3,2-f][1,7]naphthyridin-9-yl)-N-(2,2,2-trifluoroethyl)piperidine-3-carboxamide]	–	1 to 20	1 to 20
CN(CC(F)(F)F)C(=O)C1CCN(c2ccnc3cnc4[nH]ccc4c23)CC1 [Ex. 82, N-methyl-1-(3H-yrrolo[3,2-f][1,7]naphthyridin-9-yl)-N-(2,2,2-trifluoroethyl) piperidine-4-carboxamide]	–	1 to 20	> 20
O=S(=O)(CC(F)(F)F)NC1CCCN(c2ccnc3cnc4[nH]ccc4c23)C1 (stereo not shown) [Ex. 86, 2,2,2-trifluoro-N-[1-(3H-pyrrolo[3,2-f][1,7]naphthyridin-9-yl)-3-piperidyl] ethanesulfonamide]	1 to 20	1 to 20	–
O=C(CC(F)(F)F)N1CCN(c2ccnc3cnc4[nH]ccc4c23)CC1 [Ex. 103, 3,3,3-trifluoro-1-[4-(3H-pyrrolo[3,2-f][1,7]naphthyridin-9-yl)piperazin-1-yl]propan-1-one]	–	> 20	> 20
O=S(=O)(CC(F)(F)F)N1CCN(c2ccnc3cnc4[nH]ccc4c23)CC1 [Ex. 104, 9-[4-(2,2,2-trifluoroethylsulfonyl)piper-azin-1-yl]-3H-pyrrolo[3,2-f][1,7]naphthyridine]	–	> 20	> 20
